Assay: Solubility of the compound in a solvent (preparation of solution composition)
Assay type: physicochemical
Method: The solution composition containing the compound [5] in 0.5 wt % concentration was prepared by dissolving the compound [5] manufactured in Example 1 in tetrahydrofuran.
On the substrate obtained by a similar procedure to Example 8, a 0.5 wt % dichlorobenzene solution of the compound [14] heated at 100° C. was applied by the spin coating method and dried on a hot plate of 120° C. for 30 minutes to result in the formation of a thin film containing the compound and having a thickness of about 30 nm.

With `CCCCCCCCCCCCc1ccc2c(c1)sc1c2sc2c3ccc(CCCCCCCCCCCC)cc3sc21` [[14]] the “concentration of solution of the compound (solubility in a solvent)” value (dichlorobenzene, heated at 100° C.) was 0.5 wt %.
For `CCCCCCc1ccc2c(c1)sc1c2sc2c3ccc(CCCCCC)cc3sc21` [[5]], the “concentration of solution composition prepared by dissolving the compound (solubility in a solvent)” value (tetrahydrofuran) was 0.5 wt %.

Source: patent publication US20120190868A1, “SUBSTITUTED BENZOCHALCOGENOACENE COMPOUND, THIN FILM COMPRISING THE COMPOUND, AND ORGANIC SEMICONDUCTOR DEVICE INCLUDING THE THIN FILM” (NATIONAL UNIVERSITY CORPORATION NAGOYA UNIVERSITY, priority 2009, published 2012)
